Data as given in the NIST ThermoML archive (doi:10.1016/j.jct.2016.06.034).

Assay: mn = molality of the nth substance listed, in mol/kg
Conditions: for electrical conductivity / speed of sound / mass density: 84.5 kPa, Liquid; for electrical conductivity: Alternating current cell with electrodes; for speed of sound: Frequency=3 MHz, Sing-around technique in a fixed-path interferometer; for mass density: Vibrating tube method; for surface tension liquid-gas: platinum plate method

CCCCCCCCCCn1cc[n+](C)c1.[Br-] [1-decyl-3-methylimidazolium bromide] + O
Conditions	electrical conductivity [S/m]	mass density [kg/m3]	speed of sound [m/s]	surface tension liquid-gas [mN/m]
288.15 K, m1 = 1e-05	0.000112	–	–	–
288.15 K, m1 = 2e-05	0.000223	–	–	–
288.15 K, m1 = 4e-05	0.000329	–	–	–
288.15 K, m1 = 5e-05	0.000442	–	–	–
288.15 K, m1 = 8e-05	0.000678	–	–	–
288.15 K, m1 = 0.00012	0.00103	–	–	–
288.15 K, m1 = 0.00018	0.00151	–	–	–
288.15 K, m1 = 0.00026	0.00212	–	–	–
288.15 K, m1 = 0.00033	0.00273	–	–	–
288.15 K, m1 = 0.00044	0.00357	–	–	–
288.15 K, m1 = 0.00056	0.00455	–	–	–
288.15 K, m1 = 0.00075	0.006	–	–	–
288.15 K, m1 = 0.00098	0.00777	–	–	–
288.15 K, m1 = 0.00127	0.01	–	–	–
288.15 K, m1 = 0.00152	0.0119	–	–	–
288.15 K, m1 = 0.0021	0.0163	–	–	–
288.15 K, m1 = 0.00279	0.0217	–	–	–
288.15 K, m1 = 0.00349	0.027	–	–	–
288.15 K, m1 = 0.00439	0.0336	–	–	–
288.15 K, m1 = 0.00754	0.0559	–	–	–
288.15 K, m1 = 0.0095	–	999.502	1468.8	–
288.15 K, m1 = 0.01045	0.0758	–	–	–
288.15 K, m1 = 0.01291	0.0921	–	–	–
288.15 K, m1 = 0.01379	–	999.684	1469.8	–
288.15 K, m1 = 0.01562	0.11	–	–	–
288.15 K, m1 = 0.01652	–	999.799	1470.4	–
288.15 K, m1 = 0.01821	0.126	–	–	–
288.15 K, m1 = 0.0208	0.143	–	–	–
288.15 K, m1 = 0.02179	–	1000.02	1471.6	–
288.15 K, m1 = 0.02334	0.158	–	–	–
288.15 K, m1 = 0.0258	0.173	–	–	–
288.15 K, m1 = 0.02615	–	1000.2	1472.5	–
288.15 K, m1 = 0.02825	0.188	–	–	–
288.15 K, m1 = 0.03047	0.2	–	–	–
288.15 K, m1 = 0.03106	–	1000.41	1473.5	–
288.15 K, m1 = 0.03259	0.212	–	–	–
288.15 K, m1 = 0.03338	–	1000.51	1474	–
288.15 K, m1 = 0.03462	0.224	–	–	–
288.15 K, m1 = 0.03662	0.236	–	–	–
288.15 K, m1 = 0.03819	–	1000.71	1475	–
288.15 K, m1 = 0.03965	0.252	–	–	–
288.15 K, m1 = 0.0406	–	1000.81	1475.3	–
288.15 K, m1 = 0.04174	0.262	–	–	–
288.15 K, m1 = 0.04332	–	1000.92	1475.6	–
288.15 K, m1 = 0.04366	0.27	–	–	–
288.15 K, m1 = 0.04517	0.275	–	–	–
288.15 K, m1 = 0.04614	–	1001.03	1476	–
288.15 K, m1 = 0.04687	0.28	–	–	–
288.15 K, m1 = 0.04895	0.285	–	–	–
288.15 K, m1 = 0.05102	0.289	–	–	–
288.15 K, m1 = 0.05341	0.294	–	–	–
288.15 K, m1 = 0.05515	–	1001.35	1476.4	–
288.15 K, m1 = 0.05563	0.298	–	–	–
288.15 K, m1 = 0.05739	0.301	–	–	–
288.15 K, m1 = 0.05949	0.306	–	–	–
288.15 K, m1 = 0.06232	0.311	–	–	–
288.15 K, m1 = 0.06396	–	1001.66	1476.7	–
288.15 K, m1 = 0.07815	–	1002.15	1477	–
288.15 K, m1 = 0.122	–	1003.65	1477.9	–
288.15 K, m1 = 0.1726	–	1005.33	1478.9	–
288.15 K, m1 = 0.2247	–	1007.03	1480	–
288.15 K, m1 = 0.2539	–	1007.95	1480.6	–
293.15 K, m1 = 1e-05	0.00016	–	–	–
293.15 K, m1 = 3e-05	0.000289	–	–	–
293.15 K, m1 = 6e-05	0.000554	–	–	–
293.15 K, m1 = 7e-05	0.000686	–	–	–
293.15 K, m1 = 9e-05	0.00082	–	–	–
293.15 K, m1 = 0.0001	0.000947	–	–	–
293.15 K, m1 = 0.00011	0.00106	–	–	–
293.15 K, m1 = 0.00016	0.00146	–	–	–
293.15 K, m1 = 0.00025	0.00231	–	–	–
293.15 K, m1 = 0.00047	0.00432	–	–	–
293.15 K, m1 = 0.00077	0.00695	–	–	–
293.15 K, m1 = 0.0015	0.0134	–	–	–
293.15 K, m1 = 0.00805	–	–	–	56.25
293.15 K, m1 = 0.01202	–	–	–	52.74
293.15 K, m1 = 0.01627	–	–	–	49.46
293.15 K, m1 = 0.02206	–	–	–	45.32
293.15 K, m1 = 0.02718	–	–	–	42.2
293.15 K, m1 = 0.03028	–	–	–	40.63
293.15 K, m1 = 0.03568	–	–	–	38.17
293.15 K, m1 = 0.03969	–	–	–	37.78
293.15 K, m1 = 0.04205	–	–	–	37.64
293.15 K, m1 = 0.04444	–	–	–	37.78
293.15 K, m1 = 0.04581	–	–	–	37.96
293.15 K, m1 = 0.04833	–	–	–	38.56
293.15 K, m1 = 0.06141	–	–	–	39.32
293.15 K, m1 = 0.0858	–	–	–	39.48
293.15 K, m1 = 0.1481	–	–	–	39.36
293.15 K, m1 = 0.1979	–	–	–	39.38
